Measured values published in ChEMBL document CHEMBL4043275, “Design, synthesis and biological evaluation of phthalimide-alkylamine derivatives as balanced multifunctional cholinesterase and monoamine oxidase-B inhibitors for the treatment of Alzheimer's disease” (Bioorg Med Chem Lett, 2017).

How the values were obtained:
[1] = target: T1, Acetylcholinesterase (Rattus norvegicus, UniProt P37136); experiment: Inhibition of rat cortex homogenate AChE using acetylthiocholine chloride as substrate incubated for 15 mins by Ellman's method
T1 sequence (P37136 whole entry): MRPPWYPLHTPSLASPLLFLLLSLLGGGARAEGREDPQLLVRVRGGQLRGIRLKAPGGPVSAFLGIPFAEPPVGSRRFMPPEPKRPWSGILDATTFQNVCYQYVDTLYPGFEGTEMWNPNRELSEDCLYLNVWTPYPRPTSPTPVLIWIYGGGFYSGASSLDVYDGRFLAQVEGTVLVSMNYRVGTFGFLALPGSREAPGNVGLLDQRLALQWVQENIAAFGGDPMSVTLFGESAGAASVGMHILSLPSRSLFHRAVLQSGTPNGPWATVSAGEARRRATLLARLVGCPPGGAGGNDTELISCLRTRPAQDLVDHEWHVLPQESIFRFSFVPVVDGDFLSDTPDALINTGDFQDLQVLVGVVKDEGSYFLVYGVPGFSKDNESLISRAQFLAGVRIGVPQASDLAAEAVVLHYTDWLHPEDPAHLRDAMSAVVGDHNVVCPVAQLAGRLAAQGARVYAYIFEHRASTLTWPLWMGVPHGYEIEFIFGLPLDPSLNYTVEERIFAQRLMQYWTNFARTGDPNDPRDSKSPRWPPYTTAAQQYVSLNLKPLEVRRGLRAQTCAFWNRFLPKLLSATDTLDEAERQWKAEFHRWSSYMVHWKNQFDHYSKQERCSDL

[2] = target: Cholinesterase (Equus caballus, UniProt P81908); experiment: Inhibition of equine serum BChE using butyrylthiocholine chloride as substrate incubated for 15 mins by Ellman's method
Cholinesterase (Equus caballus, UniProt P81908), sequence (P81908 whole entry): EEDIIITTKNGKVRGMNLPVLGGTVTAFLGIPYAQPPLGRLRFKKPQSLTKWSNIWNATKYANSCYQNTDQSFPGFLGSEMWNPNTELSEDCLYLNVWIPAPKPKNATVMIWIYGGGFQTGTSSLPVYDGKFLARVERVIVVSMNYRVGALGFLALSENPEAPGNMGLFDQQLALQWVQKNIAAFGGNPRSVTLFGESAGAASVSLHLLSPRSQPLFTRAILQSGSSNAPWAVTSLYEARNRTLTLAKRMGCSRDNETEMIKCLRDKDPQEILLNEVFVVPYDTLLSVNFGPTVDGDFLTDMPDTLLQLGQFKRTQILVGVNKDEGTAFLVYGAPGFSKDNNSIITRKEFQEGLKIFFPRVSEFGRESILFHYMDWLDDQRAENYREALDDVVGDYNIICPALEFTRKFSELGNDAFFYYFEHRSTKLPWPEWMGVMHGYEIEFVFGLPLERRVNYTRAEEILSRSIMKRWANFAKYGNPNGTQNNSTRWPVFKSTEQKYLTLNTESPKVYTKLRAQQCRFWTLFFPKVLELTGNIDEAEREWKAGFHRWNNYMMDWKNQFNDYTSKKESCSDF

[3] = target: Acetylcholinesterase (Electrophorus electricus, UniProt O42275); experiment: Inhibition of electric eel AChE using acetylthiocholine chloride as substrate incubated for 15 mins by Ellman's method
Acetylcholinesterase (Electrophorus electricus, UniProt O42275), sequence (O42275 whole entry): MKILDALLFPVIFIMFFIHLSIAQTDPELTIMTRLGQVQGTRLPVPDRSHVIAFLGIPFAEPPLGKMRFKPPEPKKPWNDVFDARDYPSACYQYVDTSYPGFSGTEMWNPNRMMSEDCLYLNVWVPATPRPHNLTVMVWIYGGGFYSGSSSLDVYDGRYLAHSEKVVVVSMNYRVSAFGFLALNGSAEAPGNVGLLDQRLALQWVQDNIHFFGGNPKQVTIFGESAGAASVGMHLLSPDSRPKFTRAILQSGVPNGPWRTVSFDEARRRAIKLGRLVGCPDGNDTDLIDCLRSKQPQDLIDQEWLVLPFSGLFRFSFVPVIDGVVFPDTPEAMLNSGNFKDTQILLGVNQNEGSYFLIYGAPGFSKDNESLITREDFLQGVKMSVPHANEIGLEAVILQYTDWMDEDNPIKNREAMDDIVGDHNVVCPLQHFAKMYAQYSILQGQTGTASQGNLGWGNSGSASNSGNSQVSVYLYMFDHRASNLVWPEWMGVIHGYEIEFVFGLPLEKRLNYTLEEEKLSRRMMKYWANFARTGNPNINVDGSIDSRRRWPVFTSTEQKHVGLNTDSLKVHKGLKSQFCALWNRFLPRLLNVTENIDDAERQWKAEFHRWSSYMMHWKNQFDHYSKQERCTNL

[4] = Selectivity index, ratio of IC50 for equine serum BChE to IC50 for electric eel AChE
[5] = target: T2, Amine oxidase [flavin-containing] B (Homo sapiens, UniProt P27338); experiment: Inhibition of human recombinant MAO-B expressed in baculovirus infected BTI insect cells using kynuramine as substrate after 30 mins by fluorescence assay; type: cell-based
T2 sequence (P27338 whole entry): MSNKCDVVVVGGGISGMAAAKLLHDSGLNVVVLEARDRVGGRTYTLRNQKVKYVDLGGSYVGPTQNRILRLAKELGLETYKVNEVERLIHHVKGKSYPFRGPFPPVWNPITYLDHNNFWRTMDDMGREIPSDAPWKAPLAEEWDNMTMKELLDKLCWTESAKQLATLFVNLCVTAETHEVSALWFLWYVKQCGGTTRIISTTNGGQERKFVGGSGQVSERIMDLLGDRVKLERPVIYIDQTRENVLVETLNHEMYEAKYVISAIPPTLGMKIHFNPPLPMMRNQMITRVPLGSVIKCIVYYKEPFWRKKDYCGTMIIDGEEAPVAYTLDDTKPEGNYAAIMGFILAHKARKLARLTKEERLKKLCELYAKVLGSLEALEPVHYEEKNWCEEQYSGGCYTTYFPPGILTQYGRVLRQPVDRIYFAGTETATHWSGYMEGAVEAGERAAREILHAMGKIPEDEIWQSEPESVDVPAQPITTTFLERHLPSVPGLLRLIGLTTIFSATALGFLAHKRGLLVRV

[6] = target: Butyrylcholinesterase (Rattus norvegicus, UniProt Q9JKC1); experiment: Inhibition of rat serum BChE using butyrylthiocholine chloride as substrate incubated for 15 mins by Ellman's method
Butyrylcholinesterase, sequence (Q9JKC1 whole entry): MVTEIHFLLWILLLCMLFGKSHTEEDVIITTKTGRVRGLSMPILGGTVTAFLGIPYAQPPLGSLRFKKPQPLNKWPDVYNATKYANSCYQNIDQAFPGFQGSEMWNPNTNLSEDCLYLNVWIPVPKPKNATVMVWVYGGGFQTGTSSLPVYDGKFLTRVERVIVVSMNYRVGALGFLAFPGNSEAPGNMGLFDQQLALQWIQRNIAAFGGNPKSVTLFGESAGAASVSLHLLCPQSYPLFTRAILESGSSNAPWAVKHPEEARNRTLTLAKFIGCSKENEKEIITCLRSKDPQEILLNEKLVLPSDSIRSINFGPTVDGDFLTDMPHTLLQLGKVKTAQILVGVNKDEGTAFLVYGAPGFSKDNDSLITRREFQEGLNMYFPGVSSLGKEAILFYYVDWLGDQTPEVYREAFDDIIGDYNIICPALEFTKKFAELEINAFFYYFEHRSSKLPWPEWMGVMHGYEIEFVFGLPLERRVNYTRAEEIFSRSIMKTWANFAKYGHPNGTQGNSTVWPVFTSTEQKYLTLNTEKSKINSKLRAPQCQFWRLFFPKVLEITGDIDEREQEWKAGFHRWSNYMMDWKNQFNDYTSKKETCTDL

[7] = target: T3, Amine oxidase [flavin-containing] A (Homo sapiens, UniProt P21397); experiment: Inhibition of human recombinant MAO-A expressed in baculovirus infected BTI insect cells at 20 uM using kynuramine as substrate after 30 mins by fluorescence assay relative to control; details: 0.5 h
T3 sequence (P21397 whole entry): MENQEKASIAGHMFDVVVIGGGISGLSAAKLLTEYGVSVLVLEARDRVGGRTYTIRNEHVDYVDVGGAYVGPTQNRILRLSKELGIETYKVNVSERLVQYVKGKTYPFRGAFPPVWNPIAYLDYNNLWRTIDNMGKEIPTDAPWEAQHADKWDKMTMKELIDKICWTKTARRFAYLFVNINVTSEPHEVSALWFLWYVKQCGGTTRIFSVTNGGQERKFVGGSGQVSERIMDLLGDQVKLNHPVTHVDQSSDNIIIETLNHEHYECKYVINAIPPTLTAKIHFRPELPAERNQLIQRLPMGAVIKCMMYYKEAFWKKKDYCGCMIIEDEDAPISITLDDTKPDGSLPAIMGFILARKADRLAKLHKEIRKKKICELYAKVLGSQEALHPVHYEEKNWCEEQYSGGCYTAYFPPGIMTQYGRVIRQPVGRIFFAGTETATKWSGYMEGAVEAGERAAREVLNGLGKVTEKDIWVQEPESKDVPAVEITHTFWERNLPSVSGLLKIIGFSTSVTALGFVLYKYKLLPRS

[8] = target: Acetylcholinesterase (Homo sapiens, UniProt P22303); experiment: Inhibition of human erythrocyte AChE using acetylthiocholine chloride as substrate incubated for 15 mins by Ellman's method
Acetylcholinesterase (Homo sapiens, UniProt P22303), sequence (P22303 whole entry): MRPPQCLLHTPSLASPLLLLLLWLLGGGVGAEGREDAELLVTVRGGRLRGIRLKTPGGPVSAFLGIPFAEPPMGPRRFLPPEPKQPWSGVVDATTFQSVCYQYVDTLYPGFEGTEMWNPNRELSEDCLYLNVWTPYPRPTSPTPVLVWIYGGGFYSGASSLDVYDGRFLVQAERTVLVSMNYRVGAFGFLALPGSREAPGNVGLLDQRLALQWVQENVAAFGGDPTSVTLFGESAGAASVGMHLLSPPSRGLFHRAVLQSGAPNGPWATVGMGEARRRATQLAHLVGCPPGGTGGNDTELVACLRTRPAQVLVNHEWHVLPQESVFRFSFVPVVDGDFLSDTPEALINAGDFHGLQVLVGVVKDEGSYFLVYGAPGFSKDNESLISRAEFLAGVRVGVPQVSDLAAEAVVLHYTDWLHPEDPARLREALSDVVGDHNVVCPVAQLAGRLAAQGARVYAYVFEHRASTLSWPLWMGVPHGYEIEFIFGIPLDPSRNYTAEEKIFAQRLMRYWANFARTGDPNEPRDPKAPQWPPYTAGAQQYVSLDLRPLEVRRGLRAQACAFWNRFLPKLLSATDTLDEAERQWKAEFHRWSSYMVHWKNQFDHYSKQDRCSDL

[9] = target: Cholinesterase (Homo sapiens, UniProt P06276); experiment: Inhibition of human serum BChE using butyrylthiocholine chloride as substrate incubated for 15 mins by Ellman's method
Cholinesterase (Homo sapiens, UniProt P06276), sequence (P06276 whole entry): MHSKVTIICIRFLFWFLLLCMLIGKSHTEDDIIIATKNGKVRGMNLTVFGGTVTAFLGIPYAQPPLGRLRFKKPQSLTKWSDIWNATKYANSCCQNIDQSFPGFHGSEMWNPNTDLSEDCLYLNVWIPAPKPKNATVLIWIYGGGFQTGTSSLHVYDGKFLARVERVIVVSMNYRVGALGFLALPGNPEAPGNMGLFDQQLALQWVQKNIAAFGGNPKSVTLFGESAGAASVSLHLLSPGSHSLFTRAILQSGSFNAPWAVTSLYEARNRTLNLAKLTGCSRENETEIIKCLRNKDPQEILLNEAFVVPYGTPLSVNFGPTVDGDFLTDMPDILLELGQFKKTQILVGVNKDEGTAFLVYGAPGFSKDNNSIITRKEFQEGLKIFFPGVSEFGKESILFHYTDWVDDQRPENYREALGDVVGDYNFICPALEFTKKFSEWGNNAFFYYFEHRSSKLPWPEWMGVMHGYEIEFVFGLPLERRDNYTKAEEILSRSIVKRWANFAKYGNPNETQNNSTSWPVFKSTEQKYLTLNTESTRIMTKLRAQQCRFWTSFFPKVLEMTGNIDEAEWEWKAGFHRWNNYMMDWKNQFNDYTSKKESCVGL

Structure (SMILES)	IC50 [1] [µM]	IC50 [2] [µM]	IC50 [3] [µM]	Ratio IC50 [4]	IC50 [5] [µM]	IC50 [6] [µM]	inhibition at 20 µM [7] [%]	IC50 [8] [µM]	IC50 [9] [µM]
COc1ccccc1CN(C)CCCCCCN1C(=O)c2ccccc2C1=O	0.6	30.6	1.1	27.8	11.3	42.9	< 5	–	–
CCN(CCCCN1C(=O)c2ccccc2C1=O)Cc1ccccc1OC	0.04	31	0.13	238	9.4	18.9	< 5	0.28	12.9
C#CCN(CCCN1C(=O)c2ccccc2C1=O)Cc1ccccc1OC	4.1	5.8	13.5	0.43	7.6	5.3	< 5	–	–
CN(CCCCN1C(=O)c2ccccc2C1=O)Cc1ccccc1	4.3	14.5	2.6	5.6	4.2	8.4	< 5	–	–
CCN(CCCCCCN1C(=O)c2ccccc2C1=O)Cc1ccccc1OC	0.33	7.3	0.38	19.2	11.7	14.9	< 5	0.59	8.9
CCN(CCCCCCN1C(=O)c2ccccc2C1=O)Cc1ccccc1	3.4	11	1	11	12.2	18.1	< 5	3.7	15.8
CC(C)N1CCN(CCCCCCN2C(=O)c3ccccc3C2=O)CC1	6.3	19.4	8.8	2.2	13.1	27.9	< 5	–	–
CCN(CCCN1C(=O)c2ccccc2C1=O)Cc1ccccc1	1.1	9.3	3.3	2.8	6.9	13.2	< 5	–	–
CCN(CCCN1C(=O)c2ccccc2C1=O)Cc1ccccc1OC	0.4	11.3	0.9	12.6	4.7	9.4	< 5	4.5	14.6
COc1ccccc1CN(C)CCN1C(=O)c2ccccc2C1=O	13.9	11.9	6.2	1.9	8.4	14.8	< 5	–	–
CN(CCCN1C(=O)c2ccccc2C1=O)Cc1ccccc1	12.8	22.9	8.2	2.8	6.1	22.8	< 5	–	–
C#CCN(CCCCCN1C(=O)c2ccccc2C1=O)Cc1ccccc1	10.4	13.9	3.4	4.1	5.9	58.5	< 5	–	–
CN(CCCCCCN1C(=O)c2ccccc2C1=O)Cc1ccccc1	3.9	17.9	2.1	8.5	8.3	20.7	< 5	–	–
CCN(CCN1C(=O)c2ccccc2C1=O)Cc1ccccc1	13.2	21.9	9.3	2.4	8.3	16.1	< 5	–	–
CN(CCN1C(=O)c2ccccc2C1=O)Cc1ccccc1	16	22.5	15.9	1.4	7.3	26.2	< 5	–	–
CC(C)N1CCN(CCCCN2C(=O)c3ccccc3C2=O)CC1	3.9	23.4	5.3	4.4	8.9	17.9	< 5	–	–
C#CCN(CCCCCCN1C(=O)c2ccccc2C1=O)Cc1ccccc1	7.6	7.6	6.8	1.1	8.2	16.2	< 5	–	–
C#CCN(CCCCCCN1C(=O)c2ccccc2C1=O)Cc1ccccc1OC	4.3	13.4	4.9	2.7	9.1	22.5	< 5	–	–
C#CCN[C@@H]1CCc2ccccc21 [RASAGILINE]	–	–	–	–	–	–	–	0.019	4.76
C#CCN(CCCCN1C(=O)c2ccccc2C1=O)Cc1ccccc1OC	5.1	8.3	3.4	2.4	5.6	39	< 5	–	–
CCN(CCCCN1C(=O)c2ccccc2C1=O)Cc1ccccc1	0.6	9.8	0.43	22.8	6.9	13.3	< 5	0.68	15.3
CC(C)N1CCN(CCCN2C(=O)c3ccccc3C2=O)CC1	8.3	34.9	12.9	2.7	10.4	32.9	< 5	–	–
CC(C)N1CCN(CCCCCN2C(=O)c3ccccc3C2=O)CC1	5.4	34.5	7.9	4.4	12.6	16.3	< 5	–	–
COc1ccccc1CN(C)CCCN1C(=O)c2ccccc2C1=O	9.8	3.7	4.6	0.8	9.8	27.7	< 5	–	–
CCN(CCN1C(=O)c2ccccc2C1=O)Cc1ccccc1OC	0.9	18.3	3.6	5.1	6.9	15.9	< 5	–	–
C#CCN(CCCCN1C(=O)c2ccccc2C1=O)Cc1ccccc1	4	12.7	4.9	2.6	6.5	32.4	< 5	–	–
C#CCN(CCCCCN1C(=O)c2ccccc2C1=O)Cc1ccccc1OC	14	26.3	9.6	2.7	6.3	44.4	< 5	–	–
COc1ccccc1CN(C)CCCCN1C(=O)c2ccccc2C1=O	3.7	7.9	1.3	6.1	11.6	9.1	< 5	–	–
